Results: patent US5519024A, “Quinolonecarboxylic acid derivatives and their use” (Takeda Chemical Industries, Ltd., priority 1993, dated 1996)
Counter-ions that a name gives are not always drawn.

Molecular target: T1, GPIIb/IIIa (Homo sapiens, UniProt P05106+P08514)
T1 construct: Purification of GPIIb/IIIa from HEL cells; endogenous in cells; host or cells: HEL cells (HEL 92.1.7, ATCC TIB180); endogenous complex solubilized with Triton X-100 and purified in house
Test: Inhibitory activity against binding of GPIIb/IIIa and fibrinogen
Settings: Table 2, read-out: GPIIb/IIIa Fibrinogen Binding Inhibitory Activity; for inhibition at 10 µM: 10^-5 M; for inhibition at 1 µM: 10^-6 M
Method: Test Example 1: Inhibitory activity against binding of GPIIb/IIIa and fibrinogen
(1) Cultivation of human erythroleukemia-derived cell line (hereinafter referred to as HEL cells)
HEL cells (HEl92.1.7; ATCC No. TIB180) were purchased from ATCC (Rockville, Md., U.S.A.). The medium was RPMI medium (GIBCO Laboratories, Grand Island, N..Y, U.S.A.) containing 40 mM N-2-hydroxyethylpiperazine-N'-2-ethanesulfonic acid (hereinafter referred to as HEPES) (pH 7.0), 0.2% NaHCO3, 100 μg/ml kanamycin and 10% FCS. The cells were cultured in the presence of 5% CO2 at 37° C., with the medium replaced with a fresh medium to obtain a 4- to 5-fold dilution at intervals of 3 to 4 days.
(2) Purification of GPIIb/IIIa from HEL cells
GPIIb/IIIa was purified by a modification of the method of L. A. Fitzgerald et al. [J. Biol. Chem., 262, 3936 (1987)] as follows: All purification was conducted at room temperature, unless otherwise stated. At 7 days of cultivation, cells were collected from the HEL cell culture broth (cell suspension) by centrifugation (1,000 ×g, 10 minutes, 4° C.). After washing with 20 mM Tris-HCl (pH 7.5) containing 1 mM EDTA and 150 mM NaCl, the cells were suspended in a solubilizing buffer (20 mM Tris-HCl, 150 mM NaCl, 1% Triton X-100, 1 mM MgCl2, 1 mM CaCl2, 0.1 mM (p-amidinophenyl)methanesulfonyl fluoride (hereinafter referred to as APMSF), 10 nM leupeptin, 0.02% NaN3, pH 7.4), followed by gentle stirring at 4° C. for 30 minutes, to solubilize the GPIIb/IIIa. The suspension was centrifuged (100,000 ×g, 1 hour) at 4° C., and the cell debris removed, to yield a cell extract. The cell extract was passed through a Heparin-Sepharose CL-6B column (Pharmacia LKB) and a DEAE-Toyopearl 650M column (Tosoh), both previously equilibrated with a column buffer (20 mM Tris-HCl, 150 mM NaCl, 0.1% Triton X-100, 1 mM MgCl2, 1 mM CaCl2, 0.1 mM APMSF, 1 nM leupeptin, 0.05% NaN3, pH 7.4). The effluent was applied to a ConA-Sepharose column (Pharmacia LKB), previously equilibrated with the same column buffer as above, to adsorb the GPIIb/IIIa, followed by elution with the same column buffer but containing 0.5M methyl α-D-mannopyranoside. The eluted fraction was concentrated at 4° C. using an ultrafiltration apparatus (Amicon Corporation the fraction's molecular weight of 10,000), after which it was subjected to gel filtration through a Sephacryl S-300 column (Pharmacia LKB), previously equilibrated with the same column buffer, to yield a purified standard sample.
(3) Biotinization of human fibrinogen
Conducted by the method of I. F. Charo [I. F. Charo et al., J. Biol. Chem., 266, 1415 (1991)].
Human fibrinogen (Kabi Vitrum AB) was dissolved in PBS to 5 mg/ml and then dialyzed at 4° C. against 0.1M carbonate buffer (pH 8.2) containing 0.1M NaCl. After dialysis, insoluble substances were removed by centrifugation (100,000 ×g, 30 minutes), and the dialyzate was diluted to 1 mg/ml with the same buffer. To this dilution, sulfo-N-hydroxysuccinimidebiotin (Pierce Chemical Co.) was added to a final concentration of 0.2 mg/ml, followed by gentle mixing at room temperature for 30 minutes, to biotinize the fibrinogen. After completion of the reaction, the mixture was dialyzed against 0.05M Tris-HCl buffer (pH 7.4) containing 0.1M NaCl and 0.05% NaN3.
(4) Determination of inhibitory activity against fibrinogen binding
Conducted by a modification of the method of I. F. Charo [I. F. Charo et al., J. Biol. Chem., 266, 1415 (1991)] as follows: The purified GPIIb/IIIa was diluted to 1 μg/ml with buffer A (20 mM Tris-HCl, 150 mM NaCl, 1 mM CaCl2, 0.02% NaN3, pH 7.4). A 100 μl aliquot of this dilution was dispensed to a 96-well microplate (Maxisorp, produced by Nunc), and the plate kept standing at 4° C., to adsorb the GPIIb/IIIa to the microplate. Next, 150 μl of buffer B (35 mg/ml BSA, 50 mM Tris-HCl, 100 mM NaCl, 2 mM CaCl2, 0.02% NaN3, pH 7.4) was added, followed by 2 hours of blocking at 30° C. […]

T1 sequence (P08514 32-887 limits assumed): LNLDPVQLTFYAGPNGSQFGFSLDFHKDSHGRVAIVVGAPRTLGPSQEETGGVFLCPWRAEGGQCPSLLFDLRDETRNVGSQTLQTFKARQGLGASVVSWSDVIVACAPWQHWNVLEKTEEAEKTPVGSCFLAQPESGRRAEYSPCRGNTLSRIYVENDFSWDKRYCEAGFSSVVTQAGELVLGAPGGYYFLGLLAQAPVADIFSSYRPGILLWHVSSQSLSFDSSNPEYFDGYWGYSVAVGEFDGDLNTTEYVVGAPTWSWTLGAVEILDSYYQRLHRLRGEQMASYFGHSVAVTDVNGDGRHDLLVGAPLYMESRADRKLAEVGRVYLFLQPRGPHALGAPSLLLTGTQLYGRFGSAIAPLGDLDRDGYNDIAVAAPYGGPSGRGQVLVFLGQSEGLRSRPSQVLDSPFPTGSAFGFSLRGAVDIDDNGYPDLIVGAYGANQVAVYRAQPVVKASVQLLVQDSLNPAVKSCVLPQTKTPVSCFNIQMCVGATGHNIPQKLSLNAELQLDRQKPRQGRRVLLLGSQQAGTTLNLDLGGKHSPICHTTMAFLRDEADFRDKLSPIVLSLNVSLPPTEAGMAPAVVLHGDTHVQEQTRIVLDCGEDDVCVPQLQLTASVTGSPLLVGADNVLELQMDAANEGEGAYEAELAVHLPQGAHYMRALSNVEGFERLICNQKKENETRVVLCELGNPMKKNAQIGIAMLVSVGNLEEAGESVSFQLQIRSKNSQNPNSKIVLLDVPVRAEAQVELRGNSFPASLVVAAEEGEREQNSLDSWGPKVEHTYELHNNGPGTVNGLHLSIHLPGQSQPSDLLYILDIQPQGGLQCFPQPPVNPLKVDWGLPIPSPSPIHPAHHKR
T1 sequence (P08514 891-1039 limits assumed): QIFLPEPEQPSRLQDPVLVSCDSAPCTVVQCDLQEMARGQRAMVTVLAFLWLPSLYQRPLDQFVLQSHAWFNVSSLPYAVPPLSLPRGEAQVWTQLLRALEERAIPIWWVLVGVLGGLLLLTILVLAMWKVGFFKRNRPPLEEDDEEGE
T1 sequence (P05106 27-788): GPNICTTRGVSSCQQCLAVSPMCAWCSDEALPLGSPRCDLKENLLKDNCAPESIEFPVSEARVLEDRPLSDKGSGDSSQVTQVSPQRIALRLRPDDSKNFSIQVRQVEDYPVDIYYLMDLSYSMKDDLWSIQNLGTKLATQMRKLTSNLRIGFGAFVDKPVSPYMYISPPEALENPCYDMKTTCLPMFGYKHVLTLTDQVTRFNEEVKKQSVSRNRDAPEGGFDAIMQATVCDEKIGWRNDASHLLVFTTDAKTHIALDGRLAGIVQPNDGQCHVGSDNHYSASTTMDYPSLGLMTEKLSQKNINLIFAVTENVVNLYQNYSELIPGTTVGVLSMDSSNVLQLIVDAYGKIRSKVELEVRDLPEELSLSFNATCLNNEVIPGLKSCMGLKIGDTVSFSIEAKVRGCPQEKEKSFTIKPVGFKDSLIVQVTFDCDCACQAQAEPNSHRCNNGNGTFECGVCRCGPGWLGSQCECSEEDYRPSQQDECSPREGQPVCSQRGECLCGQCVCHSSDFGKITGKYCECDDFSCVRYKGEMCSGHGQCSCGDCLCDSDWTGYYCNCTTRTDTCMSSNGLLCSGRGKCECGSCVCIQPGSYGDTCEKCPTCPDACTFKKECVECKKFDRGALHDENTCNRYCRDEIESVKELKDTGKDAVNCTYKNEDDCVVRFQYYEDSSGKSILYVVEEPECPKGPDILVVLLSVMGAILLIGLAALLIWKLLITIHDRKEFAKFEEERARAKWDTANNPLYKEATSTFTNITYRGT

Structure (SMILES): O=C(O)c1cn(C2CC2)c2c(F)c(N3CCn4ccnc4C3)c(F)c(F)c2c1=O [Compound 40]
- inhibition at 10 µM: 50.6%
- inhibition at 1 µM: 34.7%

Structure (SMILES): NC(=O)CCCNc1c(F)cc2c(=O)c(C(=O)O)cn(C3CC3)c2c1F [Compound 41]
- inhibition at 10 µM: 58.8%
- inhibition at 1 µM: 17.9%

Structure (SMILES): CN1CCN(C(=O)CCCNc2c(F)cc3c(=O)c(C(=O)O)cn(C4CC4)c3c2F)CC1 [Compound 42]
- inhibition at 10 µM: 67.3%
- inhibition at 1 µM: 38.6%

Structure (SMILES): C=CCN(CC=C)c1c(F)cc2c(=O)c(C(=O)O)cn(C3CC3)c2c1F [Compound 43]
- inhibition at 10 µM: 52.1%
- inhibition at 1 µM: 20.2%

Structure (SMILES): Nc1c(F)c(N2CCN3CCC[C@@H]3C2)c(F)c2c1c(=O)c(C(=O)O)cn2C1CC1 [Compound 44]
- inhibition at 10 µM: 61.6%
- inhibition at 1 µM: 33.4%

Structure (SMILES): COn1cc(C(=O)O)c(=O)c2cc(F)c(N3CCn4ccnc4C3)c(F)c21 [Compound 45]
- inhibition at 10 µM: 59.9%
- inhibition at 1 µM: 31.4%

Structure (SMILES): O=C(O)c1cn(C2CCc3ccccc32)c2c(F)c(N3CCNCC3)c(F)cc2c1=O (centres unmarked) [Compound 46, 6,8-Difluoro-1-(indan-1-yl)-7-(piperazin-1-yl) 1,4-dihydro-4-oxoquinoline-3-carboxylic acid]
- inhibition at 1 µM: 41.6%

Structure (SMILES): NC(=O)OC1CCN(c2c(F)cc3c(=O)c(C(=O)O)cn(-c4ccc(F)cc4F)c3c2F)C1 (centres unmarked) [Compound 47]
- inhibition at 1 µM: 43.1%

Structure (SMILES): NCc1nc2c(s1)CCN(c1c(F)cc3c(=O)c(C(=O)O)cn(C4CC4)c3c1F)C2 [Compound 48]
- inhibition at 1 µM: 57.7%

Structure (SMILES): NC(=O)c1ccc(-n2cc(C(=O)O)c(=O)c3cc(F)c(N4CCNCC4)c(F)c32)cc1 [Compound 49]
- inhibition at 1 µM: 30.5%

Structure (SMILES): CN1CCN(c2c(F)cc3c(=O)c(C(=O)O)cn(Cc4nccs4)c3c2F)CC1 [Compound 50, 6,8-Difluoro-7-(4-methylpiperazin-1-yl)-1-(thiazol-2-yl)methyl-1,4-dihydro-4-oxoquinoline-3-carboxylic acid hydrochloride]
- inhibition at 10 µM: 99.8%
- inhibition at 1 µM: 92.3%

Structure (SMILES): O=C(O)c1cn(Cc2nccs2)c2c(F)c(N3CCn4ccnc4C3)c(F)cc2c1=O [Compound 51]
- inhibition at 10 µM: 97.5%
- inhibition at 1 µM: 88.1%

Structure (SMILES): O=C(O)c1cn2c3c(c(N4CCn5ccnc5C4)c(F)cc3c1=O)OCC2 [Compound 52, 9-Fluoro-10-(5,6,7,8-tetrahydroimidazo[1,2-a]pyrazin-7-yl)-2,3-dihydro-7-oxo-7H-pyrido[1,2,3-a][1,4]benzoxazine-6-carboxylic acid]
- inhibition at 10 µM: 90.8%
- inhibition at 1 µM: 55%

Structure (SMILES): CN1CCN(c2c(F)cc3c(=O)c(C(=O)O)cn4c3c2N(C)CC4)CC1 [Compound 53, 9-Fluoro-1-methyl-10-(4-methylpiperazin-1-yl) 7-oxo-2,3-dihydro-1H,7H-pyrido[1,2,3-de]quinoxaline-6-carboxylic acid]
- inhibition at 10 µM: 89.5%
- inhibition at 1 µM: 47.6%

Structure (SMILES): O=C(O)c1cn(-c2ccncc2)c2c(F)c(N3CCNCC3)c(F)cc2c1=O [Compound 54]
- inhibition at 10 µM: 50.1%
- inhibition at 1 µM: 21%

Structure (SMILES): O=C(O)c1cn(Cc2ccccc2)c2c(F)c(N3CCNCC3)c(F)cc2c1=O [Compound 55, 1-Benzyl-6,8-difluoro-7-(1-piperazinyl)-1,4-dihydro-4-oxoquinoline-3-carboxylic acid]
- inhibition at 10 µM: 100%
- inhibition at 1 µM: 93.8%

Structure (SMILES): O=C(O)c1cn(CCc2ccccc2)c2c(F)c(N3CCNCC3)c(F)cc2c1=O [Compound 56]
- inhibition at 10 µM: 88.2%
- inhibition at 1 µM: 72.2%

Structure (SMILES): O=C(O)c1cn(Cc2nccs2)c2cc(N3CCN(c4ccncc4)CC3)ccc2c1=O [Compound 57, 7-[4-(4-Pyridyl)piperazine-1-yl]-1-(2-thiazolylmethyl)-1,4-dihydro-4-oxoquinoline-3-carboxylic acid]
- inhibition at 10 µM: 100%
- inhibition at 1 µM: 100%

Structure (SMILES): O=C(O)c1cn(Cc2nccs2)c2cc(N3CCC(C4CCNCC4)CC3)ccc2c1=O [Compound 58, 7-[4-(4-Piperidinyl)piperidin-1-yl]-1-(2-thiazolylmethyl)-1,4-dihydro-4-oxoquinoline-3-carboxylic acid]
- inhibition at 10 µM: 100%
- inhibition at 1 µM: 100%

Structure (SMILES): O=C(O)c1cn(Cc2nccs2)c2c(F)c(N3CCNCC3)c(F)cc2c1=O [Compound 59, 6,8-Difluoro-7-(1-piperazinyl)-1-(2-thiazolylmethyl)-1,4-dihydro-4-oxoquinoline-3-carboxylic acid hydrochloride]
- inhibition at 10 µM: 100%
- inhibition at 1 µM: 100%

Structure (SMILES): CN(C)CCCNc1c(F)cc2c(=O)c(C(=O)O)cn(Cc3nccs3)c2c1F [Compound 60]
- inhibition at 10 µM: 100%
- inhibition at 1 µM: 95%

Structure (SMILES): O=C(O)c1cn(Cc2nccs2)c2c(F)c(N3CCCNCC3)c(F)cc2c1=O [Compound 61]
- inhibition at 10 µM: 100%
- inhibition at 1 µM: 97.1%

Structure (SMILES): CN(C)CCOC1CCN(c2c(F)cc3c(=O)c(C(=O)O)cn(Cc4nccs4)c3c2F)C1 (centres unmarked) [Compound 62]
- inhibition at 10 µM: 100%
- inhibition at 1 µM: 100%

Structure (SMILES): CN1CCN(C(=O)OC2CCN(c3c(F)cc4c(=O)c(C(=O)O)cn(Cc5nccs5)c4c3F)C2)CC1 (centres unmarked) [Compound 63]
- inhibition at 10 µM: 100%
- inhibition at 1 µM: 100%

Structure (SMILES): O=C(O)c1cn(Cc2nccs2)c2c(F)c(N3CCN(c4ccncc4)CC3)c(F)cc2c1=O [Compound 64]
- inhibition at 10 µM: 100%
- inhibition at 1 µM: 100%

Structure (SMILES): O=C(O)c1cn(Cc2nccs2)c2c(F)c(N3CCN(c4ccccn4)CC3)c(F)cc2c1=O [Compound 65]
- inhibition at 10 µM: 100%
- inhibition at 1 µM: 81.2%

Structure (SMILES): O=C(O)c1cn(Cc2nccs2)c2c(F)c(N3CCN(c4cccnc4)CC3)c(F)cc2c1=O [Compound 66]
- inhibition at 10 µM: 100%
- inhibition at 1 µM: 86.7%

Structure (SMILES): O=C(O)c1cn(Cc2nccs2)c2c(F)c(N3CCN(c4cc(N5CCCC5)nc(N5CCCC5)n4)CC3)c(F)cc2c1=O [Compound 67]
- inhibition at 10 µM: 58.6%
- inhibition at 1 µM: 76.4%

Structure (SMILES): O=C(O)c1cn(Cc2nccs2)c2c(F)c(N3CCC(C4CCNCC4)CC3)c(F)cc2c1=O [Compound 68]
- inhibition at 10 µM: 100%
- inhibition at 1 µM: 100%

Structure (SMILES): CC(=O)NCCN1CCN(c2c(F)cc3c(=O)c(C(=O)O)cn(Cc4nccs4)c3c2F)CC1 [Compound 69]
- inhibition at 10 µM: 100%
- inhibition at 1 µM: 92.2%

Structure (SMILES): NCCN1CCN(c2c(F)cc3c(=O)c(C(=O)O)cn(Cc4nccs4)c3c2F)CC1 [Compound 70]
- inhibition at 10 µM: 100%
- inhibition at 1 µM: 95.9%

Structure (SMILES): O=C(O)c1cn(Cc2nccs2)c2c(F)c(N3CCN(CCO)CC3)c(F)cc2c1=O [Compound 71]
- inhibition at 10 µM: 100%
- inhibition at 1 µM: 100%

Structure (SMILES): O=C(O)c1cn(Cc2cscn2)c2c(F)c(N3CCNCC3)c(F)cc2c1=O [Compound 72, 6,8-Difluoro-7-(1-piperazinyl)-1-(4-thiazolylmethyl)-1,4-dihydro-4-oxoquinoline-3-carboxylic acid hydrochloride]
- inhibition at 10 µM: 100%
- inhibition at 1 µM: 88.6%
